Measurements published in US20230045390A1, “PLASMODIUM VIVAX MALE GAMETE FUSION PROTEIN PVHAP2 AND THE PUTATIVE PROLIFERATING-CELL NUCLEOLAR ANTIGEN P120 AS RELAPSE BIOMARKERS” (Seattle Children's Hospital dba Seattle Children's Research …, priority 2021, published 2023).
Entries after “also recorded” stand apart in the source; their conditions may differ.

Assays:
[1] = test system: P. vivax liver stages in PHH; assay: P. vivax infection of primary human hepatocytes (PHH), quantification of extraerythrocytic forms by IFA; type: cell-based, Plasmodium vivax; conditions: 0.1 μM after day 3 post-infection, fixed day 6
Protocol: Primary human hepatocytes (BioIVT) were plated and infected in chamber slides as previously described (Schafer C, et al. A Humanized Mouse Model for Plasmodium vivax to Test Interventions that Block Liver Stage to Blood Stage Transition and Blood Stage Infection. […] 23, 101381 (2020)). Briefly, 8-well PermanoxTM slides (LabTek) were coated with collagen (Advanced Biomatrix) and seeded with 1.25×10^5 viable cells using InVitroGROTM CP medium (BioIVT) supplemented with 2% FBS without antibiotics (plating media). Four hours later, plating media was replaced with InVitroGROTM CP containing antibiotics (1× Torpedo Antibiotic Mix with 10 μM gentamycin) without serum (maintenance media). Two days after plating, cells were infected with freshly dissected P. vivax salivary gland sporozoites (MOI=1.0) for four hours in maintenance media supplemented with 20% FBS. Cells were washed once, and maintenance media replaced daily thereafter and stored at -80° C. for EV analysis. After day 3 post-infection, cultures were treated with 0.1 μM MMV048 or 0.1% DMSO as vehicle (FIG. 5). On day 6-post infection, cells were fixed and analyzed by IFA. Total extraerythrocytic forms (EEF) and schizont/hypnozoite numbers and ratio were quantified. IFA analysis of PHH and liver sections of FRG huHep mice was performed as described (Schafer C, et al. A Humanized Mouse Model for Plasmodium vivax to Test Interventions that Block Liver Stage to Blood Stage Transition and Blood Stage Infection. iScience 23, 101381 (2020); Schafer C, et al. A recombinant antibody against Plasmodium vivax UIS4 for distinguishing replicating from dormant liver stages. […] 17, 370 (2018)). Briefly, culture cells and liver tissue were fixed in 4% paraformaldehyde in TBS for 10 min (PHH) and 16 hours (liver sections). PHH were blocked and permeabilized in TBS with 2% bovine serum albumin and 0.2% Triton-X-100 (PBS/BSA/Triton). FRG huHep fixed livers were sectioned in 50 μm thick sections in a vibratome. […]

P. vivax liver stages = assay: P. vivax infection of FRG huHep mice, quantification of liver stages by IFA; type: in vivo, Plasmodium vivax
Protocol: All animal procedures were conducted in accordance with and approved by the Center for Infectious Disease Research Institutional Animal Care and Use Committee (IACUC). The Center for Infectious Disease Research IACUC adheres to the NIH Office of Laboratory Animal Welfare standards (OLAW welfare assurance #A3640-01). Female FRG KO mice engrafted with human hepatocytes (FRG KO huHep) were purchased from Yecuris Corporation (Oregon, USA). P. vivax infections of FRG huHEP were performed as previously described. Briefly, mice were divided in five experimental groups. Group 1 (3 mice) was not infected. Group 2 (6 mice) was inoculated with P. vivax sporozoites by the bite of 20 mosquitos and euthanized after 8 days post-infection (dpi). Group 3 (6 mice) was infected by intravenous injection of P. vivax sporozoites (0.8 million) and euthanized after 8 dpi. Group 4 (6 mice) was infected by intravenous injection of P. vivax sporozoites (1 million sporozoites) and euthanized after 21 dpi. Group 5 (3 mice) was infected by intravenous injection (1 million sporozoites) and treated with Tafenoquine (10 mg/kg) at 14 dpi and euthanized at 21 dpi. MMV048 (Novartis) mice treatment (30 mg/kg) was performed as follows: three mice from Groups 2 and 3 received intravenous injections of the drug at 4 dpi; three mice from Group 4 received intravenous injections of the drug at 17 dpi. Three DMSO-treated animals were used as controls in groups 2, 3 and 4. After euthanasia, livers were extracted for characterization by IFA and RT-qPCR and whole blood was extracted by cardiac venipuncture for plasma collection as previously described (Schafer C, et al. A recombinant antibody against Plasmodium vivax UIS4 for distinguishing replicating from dormant liver stages. […] 17, 370 (2018)). IFA analysis of PHH and liver sections of FRG huHep mice was performed as described (Schafer C, et al. A Humanized Mouse Model for Plasmodium vivax to Test Interventions that Block Liver Stage to Blood Stage Transition and Blood Stage Infection. iScience 23, 101381 (2020); Schafer C, et al. A recombinant antibody against Plasmodium vivax UIS4 for distinguishing replicating from dormant liver stages. […] 17, 370 (2018)). Briefly, culture cells and liver tissue were fixed in 4% paraformaldehyde in TBS for 10 min (PHH) and 16 hours (liver sections). PHH were blocked and permeabilized in TBS with 2% bovine serum albumin and 0.2% Triton-X-100 (PBS/BSA/Triton). FRG huHep fixed livers were sectioned in 50 μm thick sections in a vibratome. Tissue sections were then permeabilized in 0.25% Triton X-100 and 3% H2O2 for 30 min followed by a blocking step in 5% skim milk in TBS for 1 hour at RT. […]

P. vivax = assay: 18S qRT-PCR analysis of liver parasite load in infected FRG huHep mice; type: in vivo, Plasmodium vivax; conditions: for parasite load, 18S rRNA in liver tissue by RT-qPCR: compared to DMSO
Protocol: All animal procedures were conducted in accordance with and approved by the Center for Infectious Disease Research Institutional Animal Care and Use Committee (IACUC). The Center for Infectious Disease Research IACUC adheres to the NIH Office of Laboratory Animal Welfare standards (OLAW welfare assurance #A3640-01). Female FRG KO mice engrafted with human hepatocytes (FRG KO huHep) were purchased from Yecuris Corporation (Oregon, USA). P. vivax infections of FRG huHEP were performed as previously described. Briefly, mice were divided in five experimental groups. Group 1 (3 mice) was not infected. Group 2 (6 mice) was inoculated with P. vivax sporozoites by the bite of 20 mosquitos and euthanized after 8 days post-infection (dpi). Group 3 (6 mice) was infected by intravenous injection of P. vivax sporozoites (0.8 million) and euthanized after 8 dpi. Group 4 (6 mice) was infected by intravenous injection of P. vivax sporozoites (1 million sporozoites) and euthanized after 21 dpi. Group 5 (3 mice) was infected by intravenous injection (1 million sporozoites) and treated with Tafenoquine (10 mg/kg) at 14 dpi and euthanized at 21 dpi. MMV048 (Novartis) mice treatment (30 mg/kg) was performed as follows: three mice from Groups 2 and 3 received intravenous injections of the drug at 4 dpi; three mice from Group 4 received intravenous injections of the drug at 17 dpi. Three DMSO-treated animals were used as controls in groups 2, 3 and 4. After euthanasia, livers were extracted for characterization by IFA and RT-qPCR and whole blood was extracted by cardiac venipuncture for plasma collection as previously described (Schafer C, et al. A recombinant antibody against Plasmodium vivax UIS4 for distinguishing replicating from dormant liver stages. Malar J 17, 370 (2018)).
Liver parasite load from infected FRG huHEP mice was quantified as previously described (Flannery E L, et al. Assessing drug efficacy against Plasmodium falciparum liver stages in vivo. JCI Insight 3, (2018)).

Plasmodium spp. = conditions: preclinical studies; cited from earlier work
[2] = test system: P. cynomolgi liver hypnozoites; conditions: radical cure mode, both in vitro and in vivo; cited from earlier work
[3] = group 4: intravenous infection, treated at 17 dpi, livers collected 21 dpi
[4] = group 5: 10 mg/kg at 14 dpi, euthanized 21 dpi

Structure (SMILES)	hypnozoites by IFA [1]	schizonts by IFA ([1]; compared to DMSO)	total extraerythrocytic forms (EEF) by IFA ([1]; compared to DMSO-treated cells)	number of schizonts in liver by IFA (P. vivax liver stages; 30 mg/kg intravenous, groups 2, 3 and 4, compared to control mice)	hypnozoites in liver by IFA (P. vivax liver stages; [3])	schizonts in liver by IFA (P. vivax liver stages; [3])	parasite load, 18S rRNA in liver tissue by RT-qPCR (P. vivax; day 21, group 4)	parasite load, 18S rRNA in liver tissue by RT-qPCR (P. vivax; mosquito bite and intravenous infection, treated at 4 dpi, analyzed 8 dpi)	activity against asexual, transmission and liver stages (Plasmodium spp.)	activity against liver hypnozoites [2]	liver forms by IFA (P. vivax liver stages; [4])	parasite 18S rRNA in liver by RT-qPCR (P. vivax; [4])
CS(=O)(=O)c1ccc(-c2cnc(N)c(-c3ccc(C(F)(F)F)nc3)c2)cc1 [MMV048]	resistance of hypnozoites to the drug	no schizonts were observed; also recorded: removed schizonts	significant reduction	significantly lower number of schizonts; also recorded: removed schizonts	only one hypnozoite was detected	no schizonts	no differences	significantly reduced parasite load	potent activity	ineffective	–	–
COc1cc(C)c2c(Oc3cccc(C(F)(F)F)c3)c(OC)cc(NC(C)CCCN)c2n1 (stereo not drawn) [Tafenoquine]	–	–	–	–	–	–	–	–	–	–	no liver forms were quantified	presence of parasite 18S rRNA
